Consider 3 molecules from US20070066629A1.

Read-outs that look alike come from different tables or passages of the source.

This test has as its system Corticium solani (syn. Rhizoctonia sasakii). The note with it: individual active compound, rice, evaluated after 11 days, untreated control 81% infection.

Method: 1% by weight of the emulsifier Uniperol® EL (wetting agent having emulsifying and dispersing action based on ethoxylated alkylphenols) was added to this solution, and the solution was diluted with water to the desired concentration.
The next day, oat grains infected with Corticium solani were placed into the pots (in each case 5 grains per pot). The plants were then placed in a chamber at 26° C. and maximum atmospheric humidity.
Evaluation is carried out by determining the infected leaf areas in percent. These percentages were converted into efficacies.
The efficacy (E) is calculated as follows using Abbot's formula: E=(1−α/β)*100 α corresponds to the fungicidal infection of the treated plants in % and β corresponds to the fungicidal infection of the untreated (control) plants in %
An efficacy of 0 means that the infection level of the treated plants corresponds to that of the untreated control plants; an efficacy of 100 means that the treated plants were not infected.

Take `CC1CCN(c2c(-c3c(F)cccc3Cl)c(Cl)nc3ncnn23)CC1` [A]: the “Efficacy in % of the untreated control” value (1 ppm in the spray liquor) was 26%.

Regarding `CO/C=C(/C(=O)OC)c1ccccc1Oc1cc(Oc2ccccc2C#N)ncn1` [I (azoxystrobin), azoxystrobin], the “Efficacy in % of the untreated control” value (1 ppm in the spray liquor) was 1% and the “Efficacy in % of the untreated control” value (4 ppm in the spray liquor) is on record as 26%.

Take `CC1CCN(c2c(-c3c(F)cc(F)cc3F)c(Cl)nc3ncnn23)CC1` [II, 5-chloro-7-(4-methylpiperidin-1-yl)-6-(2,4,6-trifluorophenyl)-[1,2,4]triazolo[1,5-a]pyrimidine]: the “Efficacy in % of the untreated control” value (1 ppm in the spray liquor) is reported as 26%.
